Consider four compounds from US9499534B2, “Thiazole-substituted aminopyrimidines as spleen tyrosine kinase inhibitors” (priority 2013, dated 2016).

Data set [1] deals with recombinant human GST-SYK (Homo sapiens (Human), UniProt P43405). The data set can be described thus: Homogeneous Time-Resolved Fluorescence (HTRF) Assay for the Recombinant Human Syk Enzyme. The settings on record: GST-SYK 5 pM, ATP 25 μM, biotinylated substrate peptide 250 nM, HTRF signal. The format is biochemical. The procedure:
Homogeneous Time-Resolved Fluorescence (HTRF) Assay for the Recombinant Human Syk Enzyme
A recombinant GST-hSYK fusion protein was used to measure potency of compounds to inhibit human Syk activity. The recombinant human GST-SYK (Carna Biosciences #08-176) (5 pM final concentration) was incubated with various concentrations of the inhibitor diluted in DMSO (0.1% final concentration) for 10 minutes at room temperature in 15 mM Tris-HCl (pH 7.5), 0.01% tween 20, 2 mM DTT in 384 well plate format. To initiate the reaction the biotinylated substrate peptide (250 nM final concentration) that contains the phosphorylation site for Syk was added with magnesium (5 mM final concentration) and ATP (25 μM final concentration). Final volume of the reaction was 10 μL. Phosphorylation of the peptide was allowed to proceed for 45′ at room temperature. To quench the reaction and detect the phosphorylated product, 2 nM of a Europium-anti-phosphotyrosine antibody (Perkin Elmer #AD0161) and 70 nM SA-APC (Perkin-Elmer #CR130-100) were added together in 15 mM Tris pH 7.5, 40 mM EDTA, 0.01% tween 20. Final volume of the quenching solution was 10 μL.
The resulting HTRF signal was measured after 30 minutes on an EnVision (Perkin-Elmer) reader using a time-resolved fluorescence protocol. Table A below lists activities as IC50 values (nM) for representative compounds of the invention.
(In general: Time-resolved FRET reads energy transfer from a long-lived donor to a nearby acceptor.)

The test system of data set [2] is PGD2. As to conditions: dosed intranasally, phase I/II study, allergic rhinitis; cited from earlier work.
The conditions of data set [3]: phase II clinical trial for allergic rhinitis; cited from earlier work.

For orientation: IC50 means the midpoint of a concentration-inhibition curve. As to `OC1(c2ncc(-c3cc(Nc4nccc(C(F)(F)F)n4)cc(-c4nnn[nH]4)c3)s2)CCC1` [Example 1.4, 1-(5-(3-(1H-Tetrazol-5-yl)-5-((4-(trifluoromethyl)pyrimidin-2-yl)amino)phenyl)thiazol-2-yl)cyclobutanol], the IC50 in data set [1] was found to be 77.7 nM.

Turning to `COc1cc(Nc2nccc(C(F)(F)F)n2)cc(-c2cnc([C@]3(O)CC[C@@H](C(=O)O)CC3)s2)c1` [Example 1.6, cis-4-Hydroxy-4-(5-(3-methoxy-5-((4-(trifluoromethyl)pyrimidine-2-yl)amino)phenyl)thiazol-2-yl)cyclohexanecarboxylic acid], the IC50 in data set [1] stood at 1.29 nM.

Regarding `N#Cc1cc(Nc2nccc(C(F)(F)F)n2)cc(-c2cnc(C3(O)CCC(C(=O)O)CC3)s2)c1` (stereo not drawn) [Example 1.7, cis 4-[5-(3-cyano-5-{[4-(trifluoromethyl)pyrimidin-2-yl]amino}phenyl)-1,3-thiazol-2-yl]-4-hydroxycyclohexanecarboxylic acid], the IC50 in data set [1] amounted to 8.48 nM.

For `Oc1cccc(Nc2ncc(F)c(Nc3cccc(O)c3)n2)c1` [Example R112], in data set [2], the clinical safety result is listed as “safe across a range of indicators” and the “decrease in PGD2” value is listed as “statistically significant decrease”. Also, the efficacy versus placebo result in data set [3] was “lack of efficacy versus placebo”.
